The source of these data is patent US4916130A, “Platelet agglutination-inhibiting agent” (Green Cross Corporation, priority 1987, dated 1990).

For assay [1], the system named is platelets (platelet-rich plasma), agglutination induced by collagen. As to the kind of experiment: Inhibition of platelet agglutination induced by collagen (rat PRP, aggligometer). The note with it: 37° C., collagen 0.14 mg/ml, from inhibition ratio for maximum thrombotic agglutination. The format is cell-based. As for the experimental part: (§1) Blood was collected from the abdominal aorta of a sacrificed rat. The obtained blood was then mixed with a solution of 3.9% sodium citrate at a ratio of one part by volume of sodium citrate solution to nine parts by volume of the blood. The mixture was […] at 116×g for 10 minutes to give a platelet-rich plasma (PRP). The supernatant was further centrifuged at 1,638×g for 10 minutes to give a platelet-poor plasma (PPP). The PRP was diluted with the PPP so as to give a platelet concentration of […].
(§2) The agglutination of platelets was determined with an aggligometer (RINKADENKI HUSM type). Sample solutions of 25 μl were obtained by dissolving each test compound in methanol and adding the resulting solution to a physiological saline solution so as to give a final methanol concentration of 1%. These sample solutions were then added to 225 μl of PRP preliminarily maintained at 37° C. while stirring at 800 rpm. Three minutes thereafter, 50 μl of an agglutination inducer was added thereto while continuously stirring.
Collagen, when employed as the agglutination inducer, was added at a concentration of 0.14 mg/ml. The 50% inhibition concentration of each test compound was calculated from the inhibition ratio thereof for the maximum thrombotic agglutination.

Assay [2] concerns platelets (platelet-rich plasma), agglutination induced by arachidonic acid. As to the kind of experiment: Inhibition of platelet agglutination induced by arachidonic acid (rat PRP, aggligometer). In kind it is cell-based. The note with it: 37° C., arachidonic acid 1 mM, 50% effective concentration from onset time of agglutination vs control group. The protocol:
as §1, §2
Arachidonic acid, when employed as the agglutination inducer, was added at a concentration of 1 mM. The 50% effective concentration of each test compound was calculated by comparing the onset time from the addition of the arachidonic acid to the initiation of the agglutination with that of the control group.

The term IC50 denotes the concentration that gives 50% inhibition. With `CCC=CC(=O)NCCSSCCNC(=O)C=CCC` [Compound 1, [SCH2 CH2 NH--COCH=CHCH2 CH3]2], the IC50 was 15 µM in assay [1] and 13 µM in assay [2].

In the case of `CCCC=CC(=O)NCCSSCCNC(=O)C=CCCC` [Compound 2, [SCH2 CH2 NH--COCH=CH(CH2)2 CH3]2], the IC50 in assay [1] was 4 µM; in assay [2] it was 6.7 µM.

Turning to `CCCCC=CC(=O)NCCSSCCNC(=O)C=CCCCC` [Compound 3, [SCH2 CH2 NH--COCH=CH(CH2)3 CH3]2], the IC50 in assay [1] worked out at 26 µM; in assay [2], 17 µM.

As for `CCCCCC=CC(=O)NCCSSCCNC(=O)C=CCCCCC` [Compound 4, [SCH2 CH2 NH--COCH=CH(CH2)4 CH3]2], the values for the half-maximal inhibitory concentration (IC50) in assay [1] and in assay [2] were 290 µM and 135 µM, respectively.
